Results on twelve molecules are retold here after patent US6277859A, “Morphinan derivative and its pharmaceutical applications” (priority 1992, dated 2001).

For assay [1], the target named is T1, κ receptor (Mus musculus, UniProt P33534).
T1 construct: The isolated vas deference was filled with Krebes-Henseleit solution; from tissue; host or cells: isolated vas deferens of male ddy mouse
In words: Ke with norBNI in isolated mouse vas deference preparation. The class given is cell-based, mouse (male ddy). To be noted: for Ke norBNI: norBNI (κ). Here is the method:
(§1) A male ddy mouse was used in this test. The isolated vas deference was filled with Krebes-Henseleit solution (NaCl 118 mM; KCl 4.7 mM; CaCl2 2.5 mM; KH2 PO4 1.1 mM; NaHCO3 25 mM; and glucose 10 mM) warmed to 37° C. and suspended in a Magnus tube ventilated with 5% carbon dioxide and 95% oxygen. Electrical stimulus was performed at 0.1 Hz for 5.0 ms by means of ring-shaped platinum electrodes located above and below. Tissue contractions were recorded on a polygraph using an isometric transducer.
(§2) Then after adequately washing with nutrient solution and the contraction reaction stabilized, naloxone, a μ […], NTI, a δ […], or norBNI, a κ […], were added and the test compound was again cumulatively added after roughly 20 minutes. The Ke value was calculated using the following calculation formula from the difference in the efficacies of both agonists.
(§3) Ke=[Conc. of added agonist]/(IC50 ratio-1)
(§4) IC50 ratio IC50 in the presence of agonist/IC50 in the absence of agonist

The next assay has as its system Wistar rats. The assay can be described thus: Evaluation of diuretic action. The settings on record: sc, rat, s.c., urine output for 5 h after 20 ml/kg saline oral; for ED200: read-out: ED200, diuretic action (dose giving urine output of 200, non-dosed group = 100). It is filed as in vivo, rat (male Wistar). Here is the method: Evaluation of Diuretic Action
7-8 week old male Wistar rats were used in this test after prohibiting from drinking water for 1 hour before testing. After discharging any urine accumulated in the bladder by gently stimulating the lower abdomens of the animals, the drug was administered subcutaneously. After 30 minutes, the animals were then forcibly given 20 ml/kg of physiological saline orally. The animals were then placed in metabolic cages immediately after administration of the drug (2 animals/cage) and urine output for 5 hours after loading with physiological saline was measured. Drug efficacy was expressed in the form of those doses resulting in urine outputs of 200 and 500, respectively, when the urine output of a non-dosed group was taken to be 100. Those doses were expressed as the ED200 and ED500 values, respectively.

For the next assay, the target named is T2, μ receptor (Mus musculus, UniProt P42866).
T2 construct: The isolated vas deference was filled with Krebes-Henseleit solution; from tissue; host or cells: isolated vas deferens of male ddy mouse
T2 sequence (P42866 whole entry): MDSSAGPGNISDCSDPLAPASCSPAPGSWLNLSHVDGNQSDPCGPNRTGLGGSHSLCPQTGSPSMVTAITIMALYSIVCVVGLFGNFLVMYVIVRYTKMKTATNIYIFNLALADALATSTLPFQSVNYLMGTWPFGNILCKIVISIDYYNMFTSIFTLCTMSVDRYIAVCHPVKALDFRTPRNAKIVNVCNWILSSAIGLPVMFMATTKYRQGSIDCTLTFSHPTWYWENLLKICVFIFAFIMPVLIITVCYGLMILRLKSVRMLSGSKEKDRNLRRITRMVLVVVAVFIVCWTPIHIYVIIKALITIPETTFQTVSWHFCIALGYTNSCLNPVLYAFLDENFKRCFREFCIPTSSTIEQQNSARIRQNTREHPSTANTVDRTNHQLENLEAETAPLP
The assay can be described thus: Ke with naloxone in isolated mouse vas deference preparation. The class given is cell-based, mouse (male ddy). As for the experimental part: as §1, §2, §3, §4

The next assay has as its target T3, δ receptor (Mus musculus, UniProt P32300).
T3 construct: The isolated vas deference was filled with Krebes-Henseleit solution; from tissue; host or cells: isolated vas deferens of male ddy mouse
In words: Ke with NTI in isolated mouse vas deference preparation. The class given is cell-based, mouse (male ddy). To be noted: for Ke NTI: NTI (δ). As for the experimental part: as §1, §2, §3, §4

For assay [2], the target named is T4, κ receptor (Cavia porcellus, UniProt P41144).
T4 construct: from tissue; host or cells: longitudinal muscle of the ileum of male Hartley guinea pig
T4 sequence (P41144 whole entry): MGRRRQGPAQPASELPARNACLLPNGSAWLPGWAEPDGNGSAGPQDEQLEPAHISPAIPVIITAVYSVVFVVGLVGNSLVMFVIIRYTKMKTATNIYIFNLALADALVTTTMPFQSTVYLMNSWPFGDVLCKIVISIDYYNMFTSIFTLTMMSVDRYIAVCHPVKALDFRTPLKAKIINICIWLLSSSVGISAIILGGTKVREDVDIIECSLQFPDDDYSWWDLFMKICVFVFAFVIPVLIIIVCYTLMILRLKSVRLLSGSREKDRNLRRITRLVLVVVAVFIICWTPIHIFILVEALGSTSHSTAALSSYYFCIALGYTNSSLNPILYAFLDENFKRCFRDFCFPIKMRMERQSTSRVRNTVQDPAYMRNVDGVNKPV
In words: Ke with norBNI in isolated guinea pig preparation. To be noted: guinea pig ileum. The class given is cell-based, guinea pig (male Hartley). Here is the method:
A male Hartley guinea pig was used in this test.
After sacrificing the guinea pig and extracting the ileum, the lumen was washed with nutrient solution and only the longitudinal muscle was isolated. This longitudinal muscle was filled with Krebes-Henseleit solution (NaCl 118 mM; KCl 4.7 mM; CaCl2 2.5 mM; KH2 PO4 1.2 mM; NaHCO3 25 mM; MgSO4 1.2 mM and glucose 10 mM) warmed to 37° C. and suspended in a Magnus tube ventilated with 5% carbon dioxide and 95% oxygen. Electrical stimulus was performed at 0.1 Hz for 5.0 ms by means of ring-shaped platinum electrodes located above and below. Tissue contractions were recorded on a polygraph using an isometric transducer.
Then after adequately washing with nutrient solution and the contraction reaction stabilized, naloxone, a μ antagonist, or norBNI, a κ […], were added and the test compound was again cumulatively added after roughly 20 minutes. The Ke value was calculated using the following calculation formula from the difference in the efficacies of both agonists.
Ke=[Conc. of added antagonist]/(IC50 ratio-1)
IC50 ratio=IC50 in the presence of antagonist/IC50 in the absence of antagonist

The subject of another assay is ddY mice. In words: animal or person. It is filed as in vivo, mouse (ddY). The settings on record: mouse, s.c. 15 min before i.p. 0.6% acetic acid. Here is the method:
Analgesic Activity Test Using the Acetic Acid-induced Writhing Method
5 week old ddY mice were used in this test. After intraperitoneal administration of 0.1 ml of 0.6% aqueous acetic acid per 10 g of body weight, the number of writhing reactions that occurred in 10 minutes starting 10 minutes after administration was evaluated for the indicator. The test drug was administered subcutaneously into the backs of the animals 15 minutes before administration of acetic acid.

The subject of assay [3] is isolated mouse vas deference. In words: Opioid activity test using the isolated mouse vas deference preparation (electrically stimulated contractions). To be noted: suppression of electrically stimulated contractions. It is filed as cell-based, mouse (male ddy). Here is the method: Opioid Activity Test Using the Isolated Mouse Vas Deference Preparation
as §1, §2

Structures can show the parent of a compound that is named as a salt.

T1 sequence (P33534 whole entry): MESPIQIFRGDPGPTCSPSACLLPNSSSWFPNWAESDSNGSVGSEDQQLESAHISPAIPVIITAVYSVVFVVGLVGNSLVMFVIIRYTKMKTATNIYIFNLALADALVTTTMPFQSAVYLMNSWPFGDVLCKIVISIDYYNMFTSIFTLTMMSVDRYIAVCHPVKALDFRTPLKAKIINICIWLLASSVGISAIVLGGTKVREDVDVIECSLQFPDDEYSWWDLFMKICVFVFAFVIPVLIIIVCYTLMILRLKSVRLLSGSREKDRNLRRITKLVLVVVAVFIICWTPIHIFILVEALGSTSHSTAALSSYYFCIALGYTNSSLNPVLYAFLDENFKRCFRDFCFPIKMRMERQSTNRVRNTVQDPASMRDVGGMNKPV
T3 sequence (P32300 whole entry): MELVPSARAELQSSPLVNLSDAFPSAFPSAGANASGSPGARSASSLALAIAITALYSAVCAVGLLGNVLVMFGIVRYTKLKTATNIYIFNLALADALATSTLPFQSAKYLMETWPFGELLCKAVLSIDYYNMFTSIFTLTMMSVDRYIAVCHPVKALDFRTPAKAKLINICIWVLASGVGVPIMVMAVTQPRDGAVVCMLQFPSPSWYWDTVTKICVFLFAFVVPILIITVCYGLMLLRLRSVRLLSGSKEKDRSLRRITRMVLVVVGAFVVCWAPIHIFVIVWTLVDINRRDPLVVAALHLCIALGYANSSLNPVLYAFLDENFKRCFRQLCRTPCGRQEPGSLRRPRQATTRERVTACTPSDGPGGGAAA

Turning to `CN(C(=O)Cc1ccc(Cl)c(Cl)c1)[C@H]1CC[C@@]2(O)[C@H]3Cc4ccc(O)c5c4[C@@]2(CCN3CC2CC2)[C@H]1O5` [Compound 1, 17-cyclopropylmethyl-4,5α-epoxy-3,14β-dihydroxy-6α-(N-methyl-3,4-dichlorophenylacetamido)morphinan.hydrochloride], the “selective agonist for κ receptors (in words)” value on κ receptor [1] is on record as “selective agonists for κ receptors”. For the same molecule, the figures for the “Ke norBNI” value at κ receptor [1] and at κ receptor [2] were 0.548 nM and 0.16 nM, respectively. In addition, in the assay with Wistar rats, the ED200 came out at 2.7 µg/kg. The “Ke Naloxone” value at μ receptor stood at 53 nM. Moreover, the “Ke NTI” value on δ receptor worked out at 17.3 nM.

On to `CN(C(=O)OCc1ccccc1)[C@H]1CC[C@@]2(O)[C@H]3Cc4ccc(O)c5c4[C@@]2(CCN3CC2CC2)[C@H]1O5` [Compound 42, 17-cyclopropylmethyl-3,14β-dihydroxy-4,5α-epoxy-6α-(N-methylbenzyloxycarbamido)morphinan.tartrate], for which, on κ receptor [1], the “selective agonist for κ receptors (in words)” value is “selective agonists for κ receptors” and the “Ke norBNI” value is on record as 0.905 nM. Further, in the assay with Wistar rats (read-out: ED500, diuretic action (dose giving urine output of 500, non-dosed group = 100)), the ED500 was 6.1 µg/kg. In addition, in the assay with Wistar rats, the ED200 worked out at 0.85 µg/kg. For the same molecule, the “Ke Naloxone” value on μ receptor was found to be 186 nM. In the assay on ddY mice, the “ED50, acetic acid writhing” value was 1.36 µg/kg. Also, the “Ke NTI” value on δ receptor is recorded as 63.5 nM.

In the case of `CN(C(=O)CSc1ccccc1)[C@H]1CC[C@@]2(O)[C@H]3Cc4ccc(O)c5c4[C@@]2(CCN3CC2CC2)[C@H]1O5` [Compound 45, 17-cyclopropylmethyl-4,5α-epoxy-3,14,β-dihydroxy-6α-(N-methylthiophenoxyacetamido)morphinan.tartrate], on κ receptor [1], the “selective agonist for κ receptors (in words)” value is recorded as “selective agonists for κ receptors” and the “Ke norBNI” value is reported as 0.416 nM. Moreover, the ED200 in the assay with Wistar rats came out at 8.1 µg/kg. Besides, the “Ke Naloxone” value at μ receptor is given as 26.5 nM. Further, in the assay on ddY mice, the “ED50, acetic acid writhing” value came out at 3.8 µg/kg. The “Ke NTI” value on δ receptor was 135 nM.

For the molecule `CCCCOC(=O)N(C)[C@H]1CC[C@@]2(O)[C@H]3Cc4ccc(O)c5c4[C@@]2(CCN3CC2CC2)[C@H]1O5` [Compound 47, 17-cyclopropylmethyl-4,5α-epoxy-3,14β-dihydroxy-6α-(N-methylbutyroxycarbamido)morphinan.tartrate], on κ receptor [1], the “selective agonist for κ receptors (in words)” value is listed as “selective agonists for κ receptors” and the “Ke norBNI” value is listed as 0.140 nM. The ED200 in the assay with Wistar rats was 1.6 µg/kg. On μ receptor, the “Ke Naloxone” value is recorded as 63.5 nM. Moreover, the “ED50, acetic acid writhing” value with ddY mice worked out at 0.52 µg/kg. The “Ke NTI” value on δ receptor came to 10.4 nM.

As usually defined, the ED50 is the dose that gives a 50% effect, or the effect in half of the subjects. Usually IC50 stands for the midpoint of a concentration-inhibition curve. Read a high IC50 as a need for much substance. Consider `COc1cccc(/C=C/C(=O)N(C)[C@@H]2CC[C@@]3(O)[C@H]4Cc5ccc(O)c6c5[C@@]3(CCN4CC3CC3)[C@H]2O6)c1` [Compound 63], for which, at κ receptor [1], the “selective agonist for κ receptors (in words)” value is recorded as “selective agonists for κ receptors” and the “Ke norBNI” value is listed as 1.60 nM. The ED200 with Wistar rats was 3.8 µg/kg. In addition, on μ receptor, the “Ke Naloxone” value stood at 60.9 nM. For the same molecule, the 50% effective dose (ED50) in the assay with ddY mice (sc, read-out: ED50, acetic acid writhing) was 1.1 µg/kg. Moreover, the “Ke NTI” value on δ receptor was 96.9 nM. This molecule also returned an IC50 in assay [3] of 746 pM.

With `CN(C(=O)/C=C/C1CCCCC1)[C@@H]1CC[C@@]2(O)[C@H]3Cc4ccc(O)c5c4[C@@]2(CCN3CC2CC2)[C@H]1O5` [Compound 68, 17-cyclopropylmethyl-3,14,β-dihydroxy-4,5α-epoxy-6β-(N-methyl-3-cyclohexylacrylamido) morphinan.tartrate], at κ receptor [1], the “selective agonist for κ receptors (in words)” value is given as “selective agonists for κ receptors” and the “Ke norBNI” value is on record as 1.08 nM. Besides, the ED200 with Wistar rats is 1.6 µg/kg. Also, at μ receptor, the “Ke Naloxone” value came out at 5710 nM. For the same molecule, the “Ke NTI” value at δ receptor is given as 143 nM. Also, the half-inhibitory concentration (IC50) in assay [3] turned out to be 457 pM.

In the case of `Cc1cccc(/C=C/C(=O)N(C)[C@@H]2CC[C@@]3(O)[C@H]4Cc5ccc(O)c6c5[C@@]3(CCN4CC3CC3)[C@H]2O6)c1` [Compound 69, 17-cyclopropylmethyl-3,14β-dihydroxy-4,5α-epoxy-6β-(N-methyl-3-methylcinnamamido)morphinan.hydrochloride], on κ receptor [1], the “selective agonist for κ receptors (in words)” value is “selective agonists for κ receptors” and the “Ke norBNI” value turned out to be 1.95 nM. Besides, on μ receptor, the “Ke Naloxone” value was 1780 nM. At δ receptor, the “Ke NTI” value is 64.5 nM. Besides, 320 pM corresponded to half-maximal inhibition in assay [3] (IC50).

`CN(C(=O)/C=C/c1cccc(F)c1)[C@H]1CC[C@@]2(O)[C@H]3Cc4ccc(O)c5c4[C@@]2(CCN3CC2CC2)[C@H]1O5` [Compound 96, 17-cyclopropylmethyl-3,14β-dihydroxy-4,5α-epoxy-6α-(N-methyl-3-fluorocinnamamido)morphinan.tartrate]: the “Ke norBNI” value on κ receptor [1] is 4.21 nM. Besides, the ED200 with Wistar rats was found to be 1.3 µg/kg. The “Ke Naloxone” value at μ receptor came to 32.5 nM. For the same molecule, the “ED50, acetic acid writhing” value in the assay on ddY mice was 0.86 µg/kg. Further, at δ receptor, the “selective agonist for δ receptors (in words)” value is recorded as “selective agonists for δ receptors” and the “Ke NTI” value is 1.61 nM.

Regarding `CN(C(=O)CC(=O)c1ccccc1)[C@H]1CC[C@@]2(O)[C@H]3Cc4ccc(O)c5c4[C@@]2(CCN3CC2CC2)[C@H]1O5` [Compound 98, 17-cyclopropylmethyl-3,14β-dihydroxy-4,5α-epoxy-6α-(N-methylbenzoylacetamido)morphinan.tartrate], on κ receptor [1], the “selective agonist for κ receptors (in words)” value was “selective agonists for κ receptors” and the “Ke norBNI” value came out at 1.35 nM. Moreover, in the assay on Wistar rats, the ED200 was 6.5 µg/kg. In the assay with ddY mice, the “ED50, acetic acid writhing” value worked out at 6.8 µg/kg.

On to `CN(C(=O)/C=C/c1ccccc1)[C@@H]1CC[C@@]2(O)[C@H]3Cc4ccc(O)c5c4[C@@]2(CCN3CC2CC2)[C@H]1O5` [Compound 99, 17-cyclopropylmethyl-3,14β-dihydroxy-4,5α-epoxy-6β-(N-methylcinnamamido)morphinan.hydrochloride], for which, on κ receptor [1], the “selective agonist for κ receptors (in words)” value is “selective agonists for κ receptors” and the “Ke norBNI” value stood at 0.652 nM. For the same molecule, the ED200 in the assay with Wistar rats worked out at 1.1 µg/kg. Besides, the “Ke Naloxone” value on μ receptor came out at 94.5 nM. The “ED50, acetic acid writhing” value with ddY mice was found to be 1.8 µg/kg.

`CCC/C=C/C(=O)N(C)[C@@H]1CC[C@@]2(O)[C@H]3Cc4ccc(O)c5c4[C@@]2(CCN3CC2CC2)[C@H]1O5` [Compound 100, 17-cyclopropylmethyl-3,14β-dihydroxy-4,5α-epoxy-6β-(N-methyl-trans-2-hexenamido)morphinan.tartrate]: on κ receptor [1], the “selective agonist for κ receptors (in words)” value is on record as “selective agonists for κ receptors” and the “Ke norBNI” value came to 0.0717 nM. At μ receptor, the “Ke Naloxone” value came out at 1797 nM. In assay [3], this molecule displayed an IC50 of 647 pM.

As to `CC(=O)Oc1ccc2c3c1O[C@H]1[C@H](N(C)C(=O)/C=C/c4ccccc4)CC[C@@]4(O)[C@@H](C2)N(CC2CC2)CC[C@]314` [Compound 140, 17-Cyclopropylmethyl-3-acetoxy-14β-hydroxy-4,5α-epoxy-6β-(N-methylcinnamamido)morphinan.tartrate], on κ receptor [1], the “selective agonist for κ receptors (in words)” value is “selective agonists for κ receptors” and the “Ke norBNI” value was 1.06 nM. For the same molecule, the “Ke Naloxone” value on μ receptor is reported as 320 nM. Further, in the assay on ddY mice, the “ED50, acetic acid writhing” value is 3.4 µg/kg. The “Ke NTI” value at δ receptor was found to be 261 nM.
